Among the data in ChEMBL document CHEMBL3603809, “New Frontiers in Selective Human MAO-B Inhibitors” (J Med Chem, 2015) are Ki and Ratio Ki values, retold here.

Assay [1] addresses T1, Amine oxidase [flavin-containing] B (Homo sapiens, UniProt P27338).
T1 sequence (P27338 whole entry): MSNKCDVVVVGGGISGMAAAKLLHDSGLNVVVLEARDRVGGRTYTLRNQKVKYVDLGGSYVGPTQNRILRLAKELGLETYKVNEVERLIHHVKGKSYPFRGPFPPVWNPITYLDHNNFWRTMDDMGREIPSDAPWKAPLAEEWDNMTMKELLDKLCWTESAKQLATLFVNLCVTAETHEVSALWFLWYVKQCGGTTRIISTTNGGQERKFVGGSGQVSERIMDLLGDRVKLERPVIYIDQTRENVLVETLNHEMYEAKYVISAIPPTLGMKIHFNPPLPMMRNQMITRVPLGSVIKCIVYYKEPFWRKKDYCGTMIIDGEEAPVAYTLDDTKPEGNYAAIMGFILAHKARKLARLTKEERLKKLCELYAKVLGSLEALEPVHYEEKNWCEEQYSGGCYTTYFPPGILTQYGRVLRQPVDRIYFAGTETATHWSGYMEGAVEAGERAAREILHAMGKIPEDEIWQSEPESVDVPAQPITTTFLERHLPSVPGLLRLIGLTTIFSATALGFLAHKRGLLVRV
Nature of the assay: Inhibition of human MAOB.

The species entered for a further assay is Homo sapiens. Nature of the assay: Selectivity index, ratio of Ki for human MAOA to Ki for human MAOB.
Assay [2] concerns the target T1, Amine oxidase [flavin-containing] B. Nature of the assay: Competitive inhibition of human liver MAOB expressed in Pichia pastoris.
Assay [3] can be described thus: Inhibition of baboon MAOB. Further details: species or system Papio.

What is called Ki is a measure of affinity in units of concentration, obtained from inhibition or displacement. High values mean lower affinity, low ones higher affinity. In assay [1], `Cn1c(=O)c2c(nc(OCc3ccc(Br)cc3)n2C)n(C)c1=O` showed a Ki of 62 nM. On to `CN(C)c1ccc(/N=C/c2ccccn2)cc1`, for which, in the assay listed under Homo sapiens, the Ratio Ki was found to be 3. In the case of `C#CN(C)Cc1ccc(C(=O)NC2CC(C)(C)N([O])C(C)(C)C2)cc1`, the Ki in assay [1] stood at 22000 nM. Consider `Cn1c(=O)c2c(nc(OCc3cccc(Br)c3)n2C)n(C)c1=O`, for which, in assay [1], the Ki was determined as 68 nM. The molecule `C(=C\Cc1ccccc1)/Cc1ccccc1` gave a Ki in assay [2] of 35 nM. This lies in the double-digit nanomolar range. For `C#CCN(C)c1nc2nc(CCC3CCN(Cc4ccccc4)CC3)ccc2c(-c2ccccc2)c1C#N`, in assay [1], the Ki was 32 nM. In the assay listed under Homo sapiens, the Ratio Ki is above 3. `Cn1c(=O)c2c(nc(/C=C/C=C/c3cccc(Br)c3)n2C)n(C)c1=O` yielded a Ki in assay [3] of 17 nM. That is a double-digit nanomolar value.
